Consider eight compounds from PMC9713320, “Study of the anticancer effect of new quinazolinone hydrazine derivatives as receptor tyrosine kinase inhibitors” (Frontiers in Chemistry, 2022).

Bounds are passed on as bounds.

The subject of one test is U-87MG. Description: cells. Conditions: Homo sapiens, 72 h, MTT, read-out: IC50 (µM) / Mean ± SEM / U-87MG. Further details: MTT antiproliferative assay, absorbance at 570 nm, monolayer cancer cells. An excerpt:
(§1) MTT (3-(4,5-dimethylthiazol-2-yl)-2,5-diphenyltetrazolium bromide) assay was applied to evaluate the antiproliferative effects of synthetic compounds against cancer and normal cell lines as previously described ([Damghani et al., 2021]). The MTT assay is based on the reduction function of NAD(P)H-dependent cellular oxidoreductase enzymes on yellow tetrazolium dye MTT to its insoluble formazan, which has a purple color and reflects the number of viable cells. Cancer and non-cancer cells were seeded in 96-well flat bottom plates at different densities of 1.5 × 10^4 (HT-29), 3 × 10^4 (A549 and U-87MG), 4 × 10^4 (EBC-1). Synthetic compounds were first dissolved in DMSO and then diluted in growth medium. After 24 h the attached cells were exposed to 100 µL of 3-4 different concentrations of synthesized derivatives in triplicate manner and incubated for an additional 72 h at 37°C. In addition, 3–4 different concentrations of reference compounds were added to wells. To perform the MTT assay the media was discarded from each well and MTT solution in phosphate-buffered saline at a concentration of 0.5 mg/ml was added to all wells. Then, plates were incubated at 37°C for 4 h to allow formation of formazan crystals. Afterwards, crystals were dissolved in 200 μL DMSO, shake on an orbital shaker for 30 min and absorbance was measured at a wavelength of 570 nm with background correction at 650 nm using a Bio-Tek microplate reader (Model Synergy HTX). Finally, IC50 values for each compound was calculated with CurveExpert software version 1.4 for windows. Each experiment was repeated 3–5 times. EBC-1 (human lung adenocarcinoma cells) were obtained from Japanese Collection of Research Bio Resources Cell Bank (JCRB). A549 (human lung adenocarcinoma cells), HT-29 (Human colorectal adenocarcinoma cells) and U-87MG (human primary glioblastoma cells) were obtained from Iranian Biological Resource Centre, Tehran, Iran. EBC-1 cells were cultured in RPMI 1640 medium containing 10% heat-inactivated fetal bovine serum (FBS) and 1% penicillin/streptomycin. A549, HT-29 and U-87MG cells were grown in DMEM low glucose, containing 10% heat-inactivated FBS and 1% penicillin/streptomycin. All cells were grown in monolayer culture at 37°C in a humidified incubator with 5% CO2. We employed the MTT assay in order to investigate the antiproliferative effects of the synthetic compounds against four different cancer cell lines, including lung cancer cell lines EBC-1 (with MET amplification) and A549, the human colorectal cancer cells HT-29, as well as the human glioblastoma cell line U-87MG.

Another test deals with HT-29. Put plainly: cells. Further details: MTT antiproliferative assay, absorbance at 570 nm, monolayer cancer cells. As to conditions: Homo sapiens, 72 h, MTT, read-out: IC50 (µM) / Mean ± SEM / HT29.
Source text: as §1

For the next test, the system named is A549. Put plainly: cells. Further details: MTT antiproliferative assay, absorbance at 570 nm, monolayer cancer cells. As to conditions: Homo sapiens, 72 h, MTT, read-out: IC50 (µM) / Mean ± SEM / A549.
Source text: as §1

The next test deals with EBC-1. Description: cells. As to conditions: Homo sapiens, 72 h, MTT, read-out: IC50 (µM) / Mean ± SEM / EBC-1. Further details: MTT antiproliferative assay, absorbance at 570 nm, monolayer cancer cells.
Source text: as §1

A further test has as its target FGFR1 (Homo sapiens, UniProt P11362). Description: radiometric kinase panel, % inhibition at […]. It counts as biochemical.
In the next test the target is ALK (Homo sapiens, UniProt Q9UM73). Description: radiometric kinase panel, % inhibition at […]. The class given is biochemical.
The next test deals with FLT1 (VEGFR1) (Homo sapiens, UniProt P17948). Description: radiometric kinase panel, % inhibition at […]. The class given is biochemical.
The target of another test is 16) RET(h) (Homo sapiens, UniProt P07949). Put plainly: biochemical. Further details: Radiometric kinase activity assay, percent inhibition, Eurofins Cerep. Conditions: read-out: Kinase inhibition (%) ^a / 10 µM / −4. Here is the method:
(§2) Kinase inhibition profile was examined by Kinase Radiometric Assays for 18 different oncogenic kinases (Eurofins Cerep, Celle l'Evescault, France). In order to investigate the activity of compound CM9, as the most promising agent in this series, against other oncogenic kinases, we further assessed this derivative against a panel of 18 other protein kinases using a radiometric assay at the concentrations of 10 and/or 25 μM (Table 4).

The next test concerns the target 15) PDGFRB (PDGFRβ) (h) (Homo sapiens, UniProt P09619). Description: biochemical. Further details: Radiometric kinase activity assay, percent inhibition, Eurofins Cerep. How it is done:
as §2

The next test has as its target 9) FLT4 (VEGFR3) (Homo sapiens, UniProt P35916). Description: biochemical. Further details: Radiometric kinase activity assay, percent inhibition, Eurofins Cerep. Conditions: read-out: Kinase inhibition (%) ^a / 10 µM. How it is done:
as §2

Another test has as its target 14) PDGFRA (PDGFRα) (h) (Homo sapiens, UniProt P16234). Description: biochemical. Further details: Radiometric kinase activity assay, percent inhibition, Eurofins Cerep. Conditions: read-out: Kinase inhibition (%) ^a / 10 µM / −4. How it is done:
as §2

In a further test the target is 11) MAPK3 (ERK1) (h) (Homo sapiens, UniProt P27361). Description: biochemical. Further details: Radiometric kinase activity assay, percent inhibition, Eurofins Cerep. As to conditions: read-out: Kinase inhibition (%) ^a / 10 µM. Here is the method: as §2
For a further test, the target named is 4) KIT (c-Kit) (h) (Homo sapiens, UniProt P10721). Put plainly: biochemical. As to conditions: read-out: Kinase inhibition (%) ^a / 10 µM. Further details: Radiometric kinase activity assay, percent inhibition, Eurofins Cerep. How it is done:
as §2

For a further test, the target named is 5) EGFR(h) (Homo sapiens, UniProt P00533). Put plainly: biochemical. Further details: Radiometric kinase activity assay, percent inhibition, Eurofins Cerep. As to conditions: read-out: Kinase inhibition (%) ^a / 10 µM. Here is the method:
as §2

The next test has as its target 2) ALK(h) (Homo sapiens, UniProt Q9UM73). Description: biochemical. As to conditions: read-out: Kinase inhibition (%) ^a / 10 µM. Further details: Radiometric kinase activity assay, percent inhibition, Eurofins Cerep. Here is the method: as §2
The next test deals with 1) ABL1(h) (Homo sapiens, UniProt P00519). Put plainly: biochemical. Conditions: read-out: Kinase inhibition (%) ^a / 10 µM. Further details: Radiometric kinase activity assay, percent inhibition, Eurofins Cerep. How it is done: as §2
Another test has as its target 18) ROS1 (Homo sapiens, UniProt P08922). Put plainly: biochemical. Conditions: read-out: Kinase inhibition (%) ^a / 10 µM / −4. Further details: Radiometric kinase activity assay, percent inhibition, Eurofins Cerep. Here is the method:
as §2

A further test addresses 10) KDR (VEGFR2) (h) (Homo sapiens, UniProt P35968). Put plainly: biochemical. Further details: Radiometric kinase activity assay, percent inhibition, Eurofins Cerep. Conditions: read-out: Kinase inhibition (%) ^a / 10 µM. How it is done:
as §2

In the next test the target is 3) AXL(h) (Homo sapiens, UniProt P30530). Description: biochemical. Further details: Radiometric kinase activity assay, percent inhibition, Eurofins Cerep. Conditions: read-out: Kinase inhibition (%) ^a / 10 µM. How it is done: as §2
In a further test the target is 8) FLT3 (h) (Homo sapiens, UniProt P36888). Put plainly: biochemical. Further details: Radiometric kinase activity assay, percent inhibition, Eurofins Cerep. Here is the method: as §2
Another test deals with 17) MST1R (RON) (h) (Homo sapiens, UniProt Q04912). Put plainly: biochemical. Further details: Radiometric kinase activity assay, percent inhibition, Eurofins Cerep. As to conditions: read-out: Kinase inhibition (%) ^a / 10 µM / −4. How it is done: as §2
Another test deals with 19) NTRK1 (TRKA) (h) (Homo sapiens, UniProt P04629). Description: biochemical. Further details: Radiometric kinase activity assay, percent inhibition, Eurofins Cerep. As to conditions: read-out: Kinase inhibition (%) ^a / 10 µM / −4. How it is done: as §2
The target in the next test is 13) MET(h) (Homo sapiens, UniProt P08581). Description: biochemical. Further details: Radiometric kinase activity assay, percent inhibition, Eurofins Cerep. Here is the method: as §2
Another test addresses MAPK1(m) (ERK2) (Mus musculus, UniProt P63085). Put plainly: biochemical. Further details: Radiometric kinase activity assay, percent inhibition, Eurofins Cerep. As to conditions: read-out: Kinase inhibition (%) ^a / 10 µM / −4. Here is the method: as §2
In another test the target is 6) FGFR1(h) (Homo sapiens, UniProt P11362). Description: biochemical. Further details: Radiometric kinase activity assay, percent inhibition, Eurofins Cerep. As to conditions: read-out: Kinase inhibition (%) ^a / 10 µM. Here is the method: as §2
For the next test, the target named is 7) FLT1 (VEGFR1) (h) (Homo sapiens, UniProt P17948). Put plainly: biochemical. Further details: Radiometric kinase activity assay, percent inhibition, Eurofins Cerep. Conditions: read-out: Kinase inhibition (%) ^a / 10 µM. Here is the method:
as §2

The target of the next test is FLT4 (VEGFR3) (Homo sapiens, UniProt P35916). Put plainly: radiometric kinase assay (Eurofins), concentration-effect curve. It counts as biochemical.
A further test deals with MET kinase (Homo sapiens, UniProt P08581). Description: HTRF kinase assay; confirmed by radiometric assay. It counts as biochemical. Background: In TR-FRET formats the signal depends on donor and acceptor labels being close together.
The target in the next test is AXL (Homo sapiens, UniProt P30530). Put plainly: radiometric kinase panel, % inhibition at […]. The class given is biochemical.
Where [1] appears, read: read-out: Kinase inhibition (%) ^a / 10 µM / −4.
[2] abbreviates: read-out: Kinase inhibition (%) ^a / 25 µM.

Chain of 13) MET(h) (P08581 whole entry): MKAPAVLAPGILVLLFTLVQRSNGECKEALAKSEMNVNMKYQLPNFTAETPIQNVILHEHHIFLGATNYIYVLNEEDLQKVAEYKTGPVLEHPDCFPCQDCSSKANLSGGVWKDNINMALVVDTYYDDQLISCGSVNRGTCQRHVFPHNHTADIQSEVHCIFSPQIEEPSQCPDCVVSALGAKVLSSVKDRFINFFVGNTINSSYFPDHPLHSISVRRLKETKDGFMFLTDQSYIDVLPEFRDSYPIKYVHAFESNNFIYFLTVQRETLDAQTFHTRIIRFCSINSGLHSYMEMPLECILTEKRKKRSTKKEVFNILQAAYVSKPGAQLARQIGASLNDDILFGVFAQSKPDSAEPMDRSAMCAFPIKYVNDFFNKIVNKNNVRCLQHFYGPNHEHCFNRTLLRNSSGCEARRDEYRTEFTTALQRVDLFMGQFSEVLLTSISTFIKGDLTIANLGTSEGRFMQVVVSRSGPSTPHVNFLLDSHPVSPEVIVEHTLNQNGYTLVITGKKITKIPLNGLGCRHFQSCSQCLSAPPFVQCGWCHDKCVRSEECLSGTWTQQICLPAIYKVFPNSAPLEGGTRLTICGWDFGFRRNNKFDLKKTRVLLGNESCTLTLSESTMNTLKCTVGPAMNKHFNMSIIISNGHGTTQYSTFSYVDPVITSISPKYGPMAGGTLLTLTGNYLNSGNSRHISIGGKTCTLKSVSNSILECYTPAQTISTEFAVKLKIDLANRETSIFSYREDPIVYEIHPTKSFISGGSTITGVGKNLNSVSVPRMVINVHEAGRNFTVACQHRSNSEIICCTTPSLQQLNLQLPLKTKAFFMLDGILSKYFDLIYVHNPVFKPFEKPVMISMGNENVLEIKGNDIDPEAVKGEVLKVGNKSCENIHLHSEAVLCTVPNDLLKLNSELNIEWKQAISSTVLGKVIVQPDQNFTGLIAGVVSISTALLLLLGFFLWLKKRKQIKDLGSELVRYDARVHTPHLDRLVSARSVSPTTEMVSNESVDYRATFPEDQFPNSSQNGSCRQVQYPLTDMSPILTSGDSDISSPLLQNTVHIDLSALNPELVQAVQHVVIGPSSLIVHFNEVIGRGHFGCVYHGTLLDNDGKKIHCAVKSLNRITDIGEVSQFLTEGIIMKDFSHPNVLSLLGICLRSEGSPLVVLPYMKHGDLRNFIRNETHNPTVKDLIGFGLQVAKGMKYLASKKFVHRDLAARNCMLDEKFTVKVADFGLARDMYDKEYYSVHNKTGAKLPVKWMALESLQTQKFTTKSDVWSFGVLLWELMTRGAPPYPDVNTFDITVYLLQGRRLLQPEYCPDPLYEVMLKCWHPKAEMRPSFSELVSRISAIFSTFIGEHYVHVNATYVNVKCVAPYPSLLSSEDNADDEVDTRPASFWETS
Chain of 8) FLT3 (h) (P36888 whole entry): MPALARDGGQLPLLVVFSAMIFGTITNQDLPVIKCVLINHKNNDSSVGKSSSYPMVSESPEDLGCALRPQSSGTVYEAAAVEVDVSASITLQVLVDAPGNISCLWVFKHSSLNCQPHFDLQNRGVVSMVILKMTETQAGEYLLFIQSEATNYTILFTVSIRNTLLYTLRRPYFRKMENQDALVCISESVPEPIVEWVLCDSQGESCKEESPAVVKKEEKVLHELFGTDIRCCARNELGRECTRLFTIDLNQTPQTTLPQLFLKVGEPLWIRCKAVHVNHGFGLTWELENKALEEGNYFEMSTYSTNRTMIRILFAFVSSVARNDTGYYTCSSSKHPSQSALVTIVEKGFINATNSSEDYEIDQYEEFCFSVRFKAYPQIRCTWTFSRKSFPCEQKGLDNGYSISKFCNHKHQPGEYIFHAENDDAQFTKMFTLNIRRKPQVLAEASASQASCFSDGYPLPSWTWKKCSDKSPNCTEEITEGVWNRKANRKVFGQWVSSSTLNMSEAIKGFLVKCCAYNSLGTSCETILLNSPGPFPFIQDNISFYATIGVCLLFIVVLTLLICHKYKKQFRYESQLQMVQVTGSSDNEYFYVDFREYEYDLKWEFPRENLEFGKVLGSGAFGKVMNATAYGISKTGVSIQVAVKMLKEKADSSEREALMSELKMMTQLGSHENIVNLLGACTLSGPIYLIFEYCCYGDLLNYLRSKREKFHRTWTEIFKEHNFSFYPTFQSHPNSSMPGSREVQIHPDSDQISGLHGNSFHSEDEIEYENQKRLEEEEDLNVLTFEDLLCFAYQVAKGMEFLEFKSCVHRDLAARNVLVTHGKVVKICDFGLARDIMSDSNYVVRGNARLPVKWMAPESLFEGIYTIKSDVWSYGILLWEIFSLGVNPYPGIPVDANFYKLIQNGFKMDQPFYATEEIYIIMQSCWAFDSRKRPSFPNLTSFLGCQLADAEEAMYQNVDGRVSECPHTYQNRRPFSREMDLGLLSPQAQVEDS
Chain of 15) PDGFRB (PDGFRβ) (h) (P09619 whole entry): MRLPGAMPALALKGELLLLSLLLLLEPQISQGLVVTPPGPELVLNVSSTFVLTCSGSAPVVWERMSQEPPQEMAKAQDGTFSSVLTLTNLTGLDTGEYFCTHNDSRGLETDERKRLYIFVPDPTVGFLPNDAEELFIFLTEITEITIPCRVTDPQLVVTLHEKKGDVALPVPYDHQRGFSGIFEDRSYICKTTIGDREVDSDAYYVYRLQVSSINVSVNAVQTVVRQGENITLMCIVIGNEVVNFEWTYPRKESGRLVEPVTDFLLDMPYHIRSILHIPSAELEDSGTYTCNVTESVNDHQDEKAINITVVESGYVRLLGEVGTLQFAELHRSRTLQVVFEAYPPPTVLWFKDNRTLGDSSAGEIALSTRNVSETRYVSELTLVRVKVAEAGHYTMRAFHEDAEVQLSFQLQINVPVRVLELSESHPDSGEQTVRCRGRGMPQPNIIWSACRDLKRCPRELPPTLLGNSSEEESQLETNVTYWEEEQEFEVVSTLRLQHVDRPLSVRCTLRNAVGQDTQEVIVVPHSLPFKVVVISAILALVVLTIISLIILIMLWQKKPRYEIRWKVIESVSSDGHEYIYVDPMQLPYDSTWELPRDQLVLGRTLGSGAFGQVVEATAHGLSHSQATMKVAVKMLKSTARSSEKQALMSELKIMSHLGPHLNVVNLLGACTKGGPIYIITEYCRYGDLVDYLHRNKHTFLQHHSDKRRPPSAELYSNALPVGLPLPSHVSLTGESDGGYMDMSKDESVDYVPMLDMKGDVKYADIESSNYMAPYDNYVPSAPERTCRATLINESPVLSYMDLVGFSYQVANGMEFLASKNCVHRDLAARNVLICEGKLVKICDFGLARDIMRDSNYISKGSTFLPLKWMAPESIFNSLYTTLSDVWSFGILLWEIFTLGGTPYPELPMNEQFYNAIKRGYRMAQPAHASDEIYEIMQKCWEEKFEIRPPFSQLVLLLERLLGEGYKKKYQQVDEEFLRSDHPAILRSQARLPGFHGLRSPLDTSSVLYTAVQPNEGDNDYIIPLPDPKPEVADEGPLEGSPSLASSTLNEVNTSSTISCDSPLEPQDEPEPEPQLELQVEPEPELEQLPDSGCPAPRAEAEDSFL
Chain of MAPK1(m) (ERK2) (P63085 whole entry): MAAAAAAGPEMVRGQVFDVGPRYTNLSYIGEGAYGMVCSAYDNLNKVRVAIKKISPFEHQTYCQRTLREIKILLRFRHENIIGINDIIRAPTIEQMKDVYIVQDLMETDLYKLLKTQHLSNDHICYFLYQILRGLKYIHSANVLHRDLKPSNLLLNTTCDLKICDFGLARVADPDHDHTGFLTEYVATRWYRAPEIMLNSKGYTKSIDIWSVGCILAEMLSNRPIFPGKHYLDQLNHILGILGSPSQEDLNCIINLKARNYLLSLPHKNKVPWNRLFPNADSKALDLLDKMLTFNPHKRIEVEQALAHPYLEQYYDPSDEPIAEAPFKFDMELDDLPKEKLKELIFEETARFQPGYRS
Chain of 1) ABL1(h) (P00519 whole entry): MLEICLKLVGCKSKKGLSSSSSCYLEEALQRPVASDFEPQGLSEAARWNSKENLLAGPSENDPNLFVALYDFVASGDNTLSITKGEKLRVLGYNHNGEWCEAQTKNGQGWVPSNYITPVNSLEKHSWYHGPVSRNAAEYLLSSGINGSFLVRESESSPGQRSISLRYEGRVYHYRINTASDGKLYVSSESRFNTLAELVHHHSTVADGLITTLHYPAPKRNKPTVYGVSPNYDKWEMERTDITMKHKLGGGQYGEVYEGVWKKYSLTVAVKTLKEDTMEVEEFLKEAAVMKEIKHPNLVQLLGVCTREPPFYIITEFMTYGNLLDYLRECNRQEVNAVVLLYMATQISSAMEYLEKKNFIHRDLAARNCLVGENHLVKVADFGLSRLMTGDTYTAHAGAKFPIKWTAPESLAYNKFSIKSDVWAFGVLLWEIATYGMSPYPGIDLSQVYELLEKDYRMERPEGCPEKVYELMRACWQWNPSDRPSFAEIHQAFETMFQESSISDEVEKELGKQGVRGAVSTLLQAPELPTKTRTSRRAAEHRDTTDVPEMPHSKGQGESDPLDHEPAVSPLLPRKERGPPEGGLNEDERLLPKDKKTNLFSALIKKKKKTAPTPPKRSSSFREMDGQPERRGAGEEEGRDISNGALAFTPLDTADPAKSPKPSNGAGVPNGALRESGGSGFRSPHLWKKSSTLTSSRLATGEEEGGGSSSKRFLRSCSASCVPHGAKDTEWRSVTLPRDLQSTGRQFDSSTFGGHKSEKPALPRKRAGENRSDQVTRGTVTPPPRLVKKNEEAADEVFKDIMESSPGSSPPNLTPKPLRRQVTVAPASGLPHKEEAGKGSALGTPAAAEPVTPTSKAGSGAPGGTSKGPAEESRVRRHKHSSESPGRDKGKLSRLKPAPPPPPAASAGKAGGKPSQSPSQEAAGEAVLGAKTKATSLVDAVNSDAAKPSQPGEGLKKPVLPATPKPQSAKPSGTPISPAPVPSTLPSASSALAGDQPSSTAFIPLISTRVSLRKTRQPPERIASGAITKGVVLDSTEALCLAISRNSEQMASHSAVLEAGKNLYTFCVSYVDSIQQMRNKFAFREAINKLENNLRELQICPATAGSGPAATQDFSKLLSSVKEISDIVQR

With `Cn1c(N/N=C/c2ccc(OCc3cn(Cc4ccc(C(C)(C)C)cc4)nn3)cc2)nc2ccccc2c1=O` [CM3], the IC50 with U-87MG is > 100 µM; in the test on HT-29, 56.4 ± 14.5 µM; with A549, > 100 µM; with EBC-1 it was > 100 µM.
As to `Cn1c(N/N=C/c2ccc(OCc3cn(Cc4ccc(Cl)cc4)nn3)cc2)nc2ccccc2c1=O` [CM5], the IC50 in the test with U-87MG, in the test with HT-29, in the test with A549 and with EBC-1 was > 100 µM throughout.
For `Cn1c(N/N=C/c2ccc(OCc3cn(Cc4ccccc4)nn3)cc2)nc2ccccc2c1=O` [CM6], the IC50 was > 100 µM in the test with U-87MG, > 100 µM with HT-29, > 100 µM with A549 and 32.5 ± 6.8 µM in the test with EBC-1.
Turning to `Cc1ccc(Cn2cc(COc3ccc(/C=N/Nc4nc5ccccc5c(=O)n4C)cc3)nn2)cc1` [CM2], the IC50 with U-87MG, in the test on HT-29, in the test on A549 and with EBC-1 was > 100 µM throughout.
In the case of `Cn1c(N/N=C/c2ccc(OCc3cn(Cc4ccc([N+](=O)[O-])cc4)nn3)cc2)nc2ccccc2c1=O` [CM1], the IC50 in the test with U-87MG, in the test with HT-29, with A549 and in the test on EBC-1 was > 100 µM each time.
Take `Cn1c(N/N=C/c2ccc(OCc3cn(Cc4ccc(F)cc4)nn3)cc2)nc2ccccc2c1=O` [CM4]: the IC50 in the test on U-87MG was 67.1 ± 6.2 µM; with HT-29, 27.8 ± 5.1 µM; in the test on A549 it was > 100 µM; in the test on EBC-1, 36.2 ± 10.8 µM.
For `Cn1c(N/N=C/c2ccc(OCc3cn(Cc4ccc(Br)cc4)nn3)cc2)nc2ccccc2c1=O` [CM9, (E)-2-(2-(4-((1-(4-bromobenzyl)-1H-1,2,3-triazol-4-yl)methoxy)benzylidene)hydrazinyl)-3-methylquinazolin-4(3H)-one], the inhibition at 25 µM against FGFR1 was determined as 66%; against ALK, 51%; on FLT1 (VEGFR1) it was 82%; at 15) PDGFRB (PDGFRβ) (h) (setting [2]) it was 10%; at 8) FLT3 (h) (setting [2]), 47%; on 13) MET(h) (setting [2]), 58%. Also, the inhibition at 25 µM against AXL worked out at 65%. Besides, the inhibition at 10 µM at 16) RET(h) was -12%; at 15) PDGFRB (PDGFRβ) (h) (setting [1]) it was 23%; at 9) FLT4 (VEGFR3) it was 86%; on 14) PDGFRA (PDGFRα) (h), 5%; at 11) MAPK3 (ERK1) (h) it was -4%; on 4) KIT (c-Kit) (h) it was 0%. The inhibition at 10 µM at 5) EGFR(h) is -2%; on 2) ALK(h), 25%; at 1) ABL1(h), 14%; on 18) ROS1, -25%; at 10) KDR (VEGFR2) (h) it was 0%; at 3) AXL(h), 28%. Further, the inhibition at 10 µM at 8) FLT3 (h) (read-out: Kinase inhibition (%) ^a / 10 µM) worked out at 24%; on 17) MST1R (RON) (h), 5%; at 19) NTRK1 (TRKA) (h), 4%; at 13) MET(h) (setting [1]), 27%; on MAPK1(m) (ERK2) it was 3%; at 6) FGFR1(h) it was 39%. The inhibition at 10 µM on 7) FLT1 (VEGFR1) (h) came to 22%. Also, the IC50 against FLT4 (VEGFR3) is 5.01 µM; with U-87MG it was 24.6 ± 2.6 µM; in the test with HT-29, 65.2 ± 15.4 µM; in the test on A549 it was 64.9 ± 2.9 µM; in the test on EBC-1, 8.6 ± 1.9 µM; on MET kinase it was 22.8 ± 3.9 µM.
`Cn1c(N/N=C/c2ccc(OCc3cn(Cc4ccc(Cl)c(Cl)c4)nn3)cc2)nc2ccccc2c1=O` [CM8]: the IC50 came to 51.1 ± 7.6 µM in the test with U-87MG, 47.8 ± 6.7 µM in the test with HT-29, 34.5 ± 2.2 µM with A549 and 22.4 ± 6 µM in the test on EBC-1.
